Data set [1] in a line: Thermodynamic aqueous solubility in fasted state simulated intestinal fluid (FaSSIF). The format is physicochemical. To be noted: fasted state simulated intestinal fluid (FaSSIF), pH 6.5, thermodynamic from solid, 25° C., 24 hours equilibration, HPLC.
Another data set concerns J774 macrophages. The data set is described as follows: Alamar Blue macrophage J774 viability assay. The format is cell-based. The settings on record: Mus musculus, 72 hours culture with compound, Alamar Blue read-out. As for the experimental part:
(§1) Initial screening of candidate compounds was performed using in vitro assays to determine potency, metabolic stability and solubility in biologically relevant fluids. Potency was assessed using a viability assay based on the survival of the J774 macrophage cell line. Macrophages are closely related to osteoclasts and have been used previously as a model system for osteoclast survival (see, e.g., Luckman et al., 1998). Like osteoclasts, J774 macrophages are dependent on continued NFκB activation for survival, thereby providing a valuable screen for compounds with anti-inflammatory activity. Metabolic stability was measured by determining the rate of disappearance of compound in the presence of human liver microsomal preparations, as quantified by LC-MS/MS. Solubility was measured by equilibration of the compound in fasted state simulated intestinal fluid (FaSSIF) and quantified by HPLC.
In vitro potency as anti-inflammatory agents was determined for a number of APSAP compounds by incubation with J774 macrophages and subsequent determination of cell viability.
J774 cells were plated at 10^4 cells per well in 100 μL αMEM (α Modified Eagle Medium) in 96-well plates and grown overnight. The next day, test compounds were added to the cultures, and cultures were continued for another 72 hours. At the end of the culture period, cell survival was determined using an Alamar Blue assay as previously described (see, e.g., Nociari et al., 1998).
Alamar Blue is an oxidation-reduction sensitive indicator. The dye itself is in the oxidised state, which is blue and non-fluorescent. The dye can accept electrons from reducing species, such as NADPH and FADH, to form a reduced dye species, which is red and fluorescent. Thus the transformation from oxidised form to reduced form can be measured by fluorimetric or colourimetric means. For fluorescence measurements, 530-560 nm excitation and 590 nm emission wavelengths are typically used. For colourimetric measurements, absorbance at 570 nm (reduced form) and 600 nm (oxidised form) is typically measured. A simple calculation is performed to determine the relative quantities of the two species.
A high ratio of the reducing species, NADPH and FADH, to the corresponding oxidised species, NADP and FAD, is an indicator that cells are proliferating and viable. A low ratio indicates cells that are quiescent or non-viable.
Briefly, Alamar Blue (Biosource International) was added undiluted to each well (1:10 v/v, 10 μL). The plate was incubated at 37° C. for 3-4 hours and the fluorescence was measured at 590 nm, with a 25 nm bandwidth. A high reading indicated cells with normal viability, and a low reading indicated cells that have been damaged and are no longer proliferating normally. The controls gave a high fluorescence reading, indicating a high number of live, healthy cells. A potent test compound gave a low fluorescence reading.
The average results for each test compound (n=5) were expressed as a percent (%) of the average control value.
Addition of Compounds. All of the compounds studied were made up as 100 mM solutions in DMSO. These stock solutions were then diluted 1000-10000× in culture medium (αMEM). From these 100 μM or 10 μM solutions, convenient quantities (3-33 μL) were added directly to the wells so as to give the desired final compound concentration.

Data set [2] is described as follows: Human liver microsomal stability assay. The format is in vitro ADME. The settings on record: pooled human liver microsomes 0.5 mg/mL, test compound 3 μM, 45 minute incubation, NADPH. The method, then: as §1
Metabolic stability of APSAP derivatives was measured by determination of the rate of compound disappearance when incubated in the presence of human liver microsomes. Liver microsomes are prepared from the endoplasmic reticulum of hepatocytes and are the primary source of the most important enzymes (cytochrome P450) involved in drug metabolism. Study of drug stability in the presence of liver microsomes is accepted as a valuable model permitting rapid prediction of in vivo drug stability.
Human liver microsomes were obtained from a commercial source. Test compounds (3 μM) were incubated with pooled liver microsomes (male and female). Samples were incubated for a 45 minute period and removed at 5 time points and test compounds were analysed by LC-MS/MS.
The final incubation volume was 25 μL. A control incubation was included for each compound tested, where 0.1 M phosphate buffer pH 7.4 was added instead of NADPH. The control compounds testosterone and 7-hydroxycoumarin were included in each experiment and all incubations were performed singularly for each compound.
Each compound was incubated for 0, 5, 15, 30, and 45 minutes. The control (minus NADPH) was incubated for 45 minutes only. The reactions were stopped by the addition of 50 μL methanol containing internal standard at the appropriate time points. The incubation plates were centrifuged at 2500 rpm for 20 minutes at 4° C. to precipitate the protein.
Following protein precipitation, the sample supernatants were combined in cassettes of up to 4 compounds and analysed using standard LC-MS/MS conditions.
From a plot of the natural logarithm of the peak area ratio (i.e., the ratio of compound peak area:internal standard peak area) against time, the gradient of the line was determined. Subsequently, half-life and intrinsic clearance were calculated using the equations below: Eliminated rate constant(k)=(−gradient). […] Intrinsic Clearance(CLint)([…])=(V×0.693)/t1/2. wherein V=Incubation volume(μL/mg microsomal protein). Pharmacokinetics Studies

Data on one molecule can be found in patent US8207167B2, “Aryl-phenyl-sulfonamide-phenylene compounds and their use” (PIMCO 2664 Limited, priority 2008, dated 2012).

Structures are written as SMILES. Converted amounts (≈) assume the structure as drawn.

As a reminder, the solubility is how much of the substance goes into solution per volume. A low value points to little dissolved substance. Usually IC50 stands for the point on the concentration scale where inhibition reaches its midpoint.

In data set [1], `CNC(CO)c1cccc(NS(=O)(=O)c2ccc(-c3ccc(F)cc3F)cc2)c1` (stereo not drawn) [ABD789, 2′,4′-Difluoro-N-(3-(2-hydroxy-1-(methylamino)ethyl)phenyl)biphenyl-4-sulfonamide] registered a solubility at 24 h of 520 µg/mL (≈ 1240 µM). Moreover, in the data set with J774 macrophages, the IC50 was determined as 140 nM. The T1/2 entry in data set [2] is “Stable”.
